Test results reported in patent EP0366226A1, “Stabilized thiocarbonate solutions and the use thereof for controlling soil pests” (UNION OIL COMPANY OF CALIFORNIA, priority 1988, dated 1990).
Marks after values point to notes of the source that are not given here.

Columns and labels:
[1] = Rate of carbon disulfide loss from solutions on nitrogen bubbling (mass spectrometer); format: physicochemical; details: undiluted (pure CS2; Ex. 1 100%)
Method: The rate at which carbon disulfide is lost from diluted ammonium thiocarbonate compositions was determined by bubbling nitrogen through the solutions and measuring the carbon disulfide content of the gas which leaves the solution using a mass spectrometer.
In the determination, the solution, corresponding to that of Example 1 (containing 14.1 percent by weight carbon disulfide), was compared to pure carbon disulfide, and to serial dilutions of the Example 1 solution with water, which were 10, 1 and 0.1 volume percent solutions of the original composition. The results are tabulated below, wherein k is the calculated first order rate constant for loss of carbon disulfide, and t is the solution half-life.

[2] = Effect of pH on production of CS2 from thiocarbonates in citrate-phosphate buffers (gas chromatography of air); format: physicochemical
Method: Pure carbon disulfide was also injected, for comparison. A syringe was used to periodically sample air in the bottle, and the air was analyzed by gas chromotography.

[3] = Degradation time in sandy loam soil at different moisture (CS2 in air space by gas chromatography); format: physicochemical
Method: A sandy loam soil was placed in 1-liter glass bottles, fitted with stoppers having fluorocarbon liners and silicone rubber septa, to give a soil depth of about 4 cm. Water was added to the soil, in quantities to obtain 50 and 100 percent soil saturation. Thiocarbonate solution or carbon disulfide was then injected near the bottom of the soil layer, the bottles were promptly sealed, and the air space in the bottles was sampled at intervals with a syringe, for gas chromatographic analysis of CS₂. The results are summarized below, wherein degradation time is the number of hours required to achieve the maximum CS₂ concentration in the air space.

[4] = tested on: root-knot nematode larvae; test: Greenhouse nematocide experiment with tomato plants, root gall count; format: in vivo; details: Application 50 ppm; mean of four replicates; asterisk = statistically indistinguishable
Text: (§1) Eighty containers were used, each containing about 500 grams of sterilized sandy loam soil. Each container was given four 5-milliliter injections of extract from nematode-infested pepper roots, one inch below the soil surface, producing an initial population of 2000 root-knot nematode larvae per container.
(§2) Twenty treatments were replicated four times, each treatment consisting of solution injection into the soil at a two inch depth. The treatments included each of the six compositions from Example 3 at three levels, plus one level of the known nematocide 1,2-dibromo-3-chloropropane (DBCP), and a control with only water injected. After injection, each container was enclosed in a plastic bag and placed in the shade for three days. Upon removing the bags, the soils were aerated by stirring and were allowed to stand undisturbed for eight additional days. Following an additional aeration, a tomato seedling was planted in eac pot.
(§3) Each container received 25 milligrams nitrogen (as calcium nitrate) immediately after planting, followed by 2 grams of a slow release complete fertilizer. […] By use of a magnifying glass, the number of root galls was counted on each plant. […]
(§4) The results are shown in the following table, in which the "Application" represents milligrams of treatment per kilogram of soil, calculated as contained carbon disulfide for the Example 3 solutions. […]

tomato plants = test: Greenhouse nematocide experiment, plant dry weight / phytotoxicity; format: in vivo; details: Application 50 ppm; 37 days of growth
Text: as §1, §2, §3, §4

Compound	k, first order rate constant for loss of carbon disulfide [1] [h⁻¹]	Half-life (minutes) for production of carbon disulfide ([2]; pH 5.2, 125 milligrams of thiocarbonate ion per liter) [min]	Half-life (minutes) for production of carbon disulfide ([2]; pH 6.0) [min]	Half-life (minutes) for production of carbon disulfide ([2]; pH 7.0) [min]	Half-life (minutes) for production of carbon disulfide ([2]; pH 8.0, CaCS4 values above pH 7 called unreliable) [min]	Degradation Time ([3]; Soil Moisture 50 % of Saturation) [h]	Degradation Time ([3]; Soil Moisture 100 % of Saturation) [h]	Gall Count [4]	Dry Weight, Grams Roots (tomato plants) [Grams]	Dry Weight, Grams Total (tomato plants) [Grams]
S=C=S [CS₂, carbon disulfide, reference compound]	2.0	1	1	1	1	3.5	3.5			
ClCC(Br)CBr (stereo not shown) [DBCP, 1,2-dibromo-3-chloropropane]								0*	0.273	1.238
